PMC12432892, “Therapeutic applications of interface-mimicking peptides for targeting the SARS-CoV-2 NSP12-NSP8 RdRp complex” (Molecular Therapy, 2025)

Columns and labels:
Plasma stability = format: in vitro ADME; settings: mouse plasma (ICR, male, K2-EDTA), LC-MS/MS; for Plasma Stability Half-life / time to complete loss of detectable peptide in plasma: 10 μM; for Plasma Stability Half-life / half-life at 10 μM: 37°C, 0, 20, 40, 60, 120 min, duplicate (n = 2); for time to complete loss of detectable peptide in plasma: 37°C, n = 2
Method: Plasma stability of the peptides was evaluated using mouse plasma (ICR, male, K2-EDTA) purchased from Innovative Research. Each peptide (10 μM final concentration) was incubated at 37°C for 0, 20, 40, 60, and 120 min. Samples were processed and analyzed by LC-MS/MS, as described above. Procaine was used as a positive control.
(§1) All in vitro stability experiments were performed in duplicate (n = 2). Since the standard deviation was less than 20% in all cases, no additional replicates were conducted.

[1] = Liver microsomal stability; format: in vitro ADME, mouse; settings: for Metabolic Stability Evaluation: classified based on in vivo CL_int values (footnote of Table S3); for half-life at 10 μM / remaining at 1 h, 10 μM / microsomal CLint at 10 μM: mouse liver microsomes (CD-1, pooled), 37°C; for half-life at 10 μM: NADPH, 0, 5, 15, 30, 60 min, duplicate (n = 2); for half-life at 10 μM / remaining at 1 h, 10 μM: LC-MS/MS; for remaining at 1 h, 10 μM / microsomal CLint at 10 μM: NADPH; for remaining at 1 h, 10 μM: n = 2, read-out: Microsomal Stability Remaining at 60 min; for microsomal CLint at 10 μM: calculated from the depletion rate, read-out: CL_int, microsomal; for CL_int, in vivo: scaled from microsomal CL_int to in vivo liver clearance using established mouse parameters
Method: Reactions were quenched and peptide concentrations were quantified using liquid chromatography-tandem mass spectrometry (LC-MS/MS) (AB Sciex QTRAP 6500+, Analyst software version 1.7.2). Clearance and half-life were calculated by non-compartmental analysis, and values were converted to hepatic clearance (CLint, liver) using standard scaling factors.
as §1

Vero-E6 cells = assay: in vitro; format: cell-based; settings: MTT, 24 h
Method: (§2) The cytotoxicity of test samples was assessed in Vero-E6 cells using the MTT assay, following the manufacturer’s protocol for the CellTiter 96 Non-radioactive Cell Proliferation Assay (Promega). Briefly, […] cells were seeded in 96-well plates at a density of 2 × 10^4 cells per well and incubated for 24 h. Following this, cells were treated with test samples at concentrations ranging from 0.2 to 40 μM and incubated for an additional 24 h. After incubation, 15 μL of MTT reagent (dye solution) was added to each well, and the cells were further incubated for 4 h. Subsequently, 100 μL of solubilization/stop solution was added to dissolve the formazan crystals. The optical density was measured at 570 nm, and statistical significance was determined by comparing the results to those of the mock-treated cells. […]
(§3) Figure S5. MTT assay of peptides including scrambled version
(§4) Vero-E6 cells were treated with NSP8-based peptides at concentrations ranging from 0.2 to 40 μM and incubated for an additional 24 hours. Cytotoxicity was evaluated using the MTT assay to assess the impact of the peptides on cell viability. According to IOS 10993-5 guidelines, cell […]
(§5) moderate cytotoxicity, and below 40% signifies strong cytotoxicity. […]

NSP12-NSP8-NSP7 complex = molecular target: T1, NSP12-NSP8-NSP7 complex (Severe acute respiratory syndrome coronavirus 2, UniProt P0DTD1); format: binding, SARS-CoV-2; settings: for KD of the NSP8-NSP7-RNA ligand complex to NSP12 in the presence of the peptide: MST, labeled NSP12 20 nM, PBS with Tween 20, mean ± SD, more than three independent analyses, no-peptide Ctrl 11.9-12.9 nM
T1 construct: made in house; host or cells: NSP12: baculovirus in Hifive insect cells; NSP7 and NSP8: E. coli BL21(DE3), pET-11

in vitro = format: cell-based; settings: Vero-E6 cells, MTT, 40 μM peptide, read-out: cell viability
Method: as §2, §3, §4, §5

[2] = test system: wild-type ancestral SARS-CoV-2 L-clade strain; format: cell-based
SARS-CoV-2 RdRp = molecular target: T2, SARS-CoV-2 RdRp (Severe acute respiratory syndrome coronavirus 2, UniProt P0DTD1); format: cell-based
T2 construct: The SARS-CoV-2 reporter and NSP12, NSP7, and NSP8 genes were cloned into pcDNA3.1(+) plasmid vectors; expressed in transfected cells; host or cells: 293T (HEK-293T) cells, pcDNA3.1(+) plasmids

[3] = concentrations between 20 and 40 μM

CC[C@H](C)[C@H](NC(=O)[C@H](CC(N)=O)NC(=O)[C@H](CC(C)C)NC(=O)[C@@H]1CCCN1C(=O)[C@@H](NC(=O)[C@H](CS)NC(=O)CNC(=O)[C@H](CC(=O)O)NC(=O)[C@H](CCCNC(=N)N)NC(=O)[C@H](C)NC(=O)CNC(=O)[C@H](CO)NC(=O)CNC(=O)[C@H](CCCNC(=N)N)NC(=O)[C@H](CCCNC(=N)N)NC(=O)[C@H](CCCNC(=N)N)NC(=O)[C@H](CCC(N)=O)NC(=O)[C@H](CCCNC(=N)N)NC(=O)[C@H](CCCNC(=N)N)NC(=O)[C@H](CCCCN)NC(=O)[C@H](CCCCN)NC(=O)[C@H](CCCNC(=N)N)NC(=O)CNC(=O)[C@H](Cc1ccc(O)cc1)NC(C)=O)C(C)C)C(=O)N[C@H](C(=O)N1CCC[C@H]1C(=O)N[C@@H](CC(C)C)C(=O)N[C@H](C(=O)N[C@H](C(=O)N[C@@H](C)C(=O)N[C@@H](C)C(=O)N[C@@H](CCCCN)C(=O)N[C@@H](CC(C)C)C(=O)N[C@@H](CCSC)C(=O)N[C@H](C(=O)N[C@H](C(=O)N[C@H](C(=O)N1CCC[C@H]1C(=O)N[C@@H](CC(=O)O)C(N)=O)[C@@H](C)CC)C(C)C)C(C)C)[C@@H](C)O)[C@@H](C)O)[C@@H](C)CC [N8-PepβD]
Plasma Stability Half-life (Plasma stability): approximately 3 min
time to complete loss of detectable peptide in plasma (Plasma stability): ≤ 20 min
half-life at 10 μM (Plasma stability): 3 min
Metabolic Stability Evaluation [1]: High metabolism
half-life at 10 μM [1]: 17.8 min
remaining at 1 h, 10 μM [1]: 7.8%
microsomal CLint at 10 μM [1]: 77.9 µL/min/mg
CL_int, in vivo [1]: 306.7 mL/min/kg
cytotoxicity (ISO 10993-5) (Vero-E6 cells; [3]): weak cytotoxicity (80%-60% suggests weak cytotoxicity)

Ac-YGRKKRRQRRRGSGVVIPKIDLAAPNLMDLVPCRIATTG-NH2 [N8-PepβD_sc]
peptide aggregation in the MST assay (NSP12-NSP8-NSP7 complex; PBS with Tween 20 buffer, peptide 24 μM): could not be determined due to peptide aggregation

CC[C@H](C)[C@H](NC(=O)[C@H](CC(N)=O)NC(=O)[C@H](CC(N)=O)NC(=O)[C@H](CC(C)C)NC(=O)CNC(=O)[C@H](CO)NC(=O)CNC(=O)[C@H](CCCNC(=N)N)NC(=O)[C@H](CCCNC(=N)N)NC(=O)[C@H](CCCNC(=N)N)NC(=O)[C@H](CCC(N)=O)NC(=O)[C@H](CCCNC(=N)N)NC(=O)[C@H](CCCNC(=N)N)NC(=O)[C@H](CCCCN)NC(=O)[C@H](CCCCN)NC(=O)[C@H](CCCNC(=N)N)NC(=O)CNC(=O)[C@H](Cc1ccc(O)cc1)NC(C)=O)C(=O)N[C@H](C(=O)N[C@@H](CC(N)=O)C(=O)N[C@@H](CC(N)=O)C(=O)N[C@@H](C)C(=O)N[C@@H](CCCNC(=N)N)C(=O)N[C@@H](CC(=O)O)C(=O)NCC(=O)N[C@@H](CS)C(=O)N[C@H](C(=O)N1CCC[C@H]1C(=O)N[C@@H](CC(C)C)C(=O)N[C@@H](CC(N)=O)C(=O)N[C@H](C(=O)N[C@H](C(=O)N1CCC[C@H]1C(=O)N[C@@H](CC(C)C)C(=O)N[C@H](C(=O)N[C@H](C(=O)N[C@@H](C)C(=O)N[C@@H](C)C(=O)N[C@@H](CCCCN)C(=O)N[C@@H](CC(C)C)C(=O)N[C@@H](CCSC)C(=O)N[C@H](C(=O)N[C@H](C(N)=O)C(C)C)C(C)C)[C@@H](C)O)[C@@H](C)O)[C@@H](C)CC)[C@@H](C)CC)C(C)C)[C@@H](C)CC [N8-Pepβ]
Plasma Stability Half-life (Plasma stability): approximately 3 min
time to complete loss of detectable peptide in plasma (Plasma stability): ≤ 20 min
half-life at 10 μM (Plasma stability): 3 min
Metabolic Stability Evaluation [1]: High metabolism
half-life at 10 μM [1]: 9.8 min
remaining at 1 h, 10 μM [1]: 15.1%
microsomal CLint at 10 μM [1]: 142 µL/min/mg
CL_int, in vivo [1]: 559.2 mL/min/kg
cytotoxicity (ISO 10993-5) (Vero-E6 cells; [3]): weak cytotoxicity (80%-60% suggests weak cytotoxicity)

Ac-INRNLTVPNICTPGILINADANADLNGRKKRRQRRRPQ-NH2 [N8-Pepα_sc]
KD of the NSP8-NSP7-RNA ligand complex to NSP12 in the presence of the peptide (NSP12-NSP8-NSP7 complex): 14.3 ± 1.0 nM

CC[C@H](C)[C@@H]1NC(=O)[C@H](CC(N)=O)NC(=O)[C@H](CC(N)=O)NC(=O)[C@H](CC(C)C)NC(=O)[C@H](C)NC(=O)[C@H](CC(=O)O)NC(=O)[C@H](CC(N)=O)NC(=O)[C@@H](NC(C)=O)CSSC[C@@H](C(=O)NCC(=O)N[C@@H](CCCNC(=N)N)C(=O)N[C@@H](CCCCN)C(=O)N[C@@H](CCCCN)C(=O)N[C@@H](CCCNC(=N)N)C(=O)N[C@@H](CCCNC(=N)N)C(=O)N[C@@H](CCC(N)=O)C(=O)N[C@@H](CCCNC(=N)N)C(=O)N[C@@H](CCCNC(=N)N)C(=O)N[C@@H](CCCNC(=N)N)C(=O)N2CCC[C@H]2C(=O)N[C@@H](CCC(N)=O)C(N)=O)NC(=O)[C@H](C)NC(=O)[C@H]([C@@H](C)O)NC(=O)[C@H]([C@@H](C)O)NC(=O)[C@H](CC(C)C)NC(=O)[C@@H]2CCCN2C(=O)[C@H]([C@@H](C)CC)NC(=O)[C@H]([C@@H](C)CC)NC(=O)[C@H](CC(N)=O)NC(=O)[C@H](CC(C)C)NC(=O)[C@@H]2CCCN2C(=O)[C@H](C(C)C)NC(=O)[C@H](CS)NC(=O)CNC(=O)[C@H](CC(=O)O)NC(=O)[C@H](CCCNC(=N)N)NC(=O)[C@H](C)NC(=O)[C@H](CC(N)=O)NC(=O)[C@H](CC(N)=O)NC(=O)[C@H]([C@@H](C)CC)NC1=O [N8-Pepα_cyc]
Plasma Stability Half-life (Plasma stability): approximately 3 min
time to complete loss of detectable peptide in plasma (Plasma stability): ≤ 20 min
half-life at 10 μM (Plasma stability): 3 min
Metabolic Stability Evaluation [1]: High metabolism
half-life at 10 μM [1]: 23.3 min
remaining at 1 h, 10 μM [1]: 14.9%
microsomal CLint at 10 μM [1]: 59.6 µL/min/mg
CL_int, in vivo [1]: 234.7 mL/min/kg
viability at 24 h, 40 µM (in vitro): > 80%
cytotoxicity (ISO 10993-5) (Vero-E6 cells; at 40 μM): no cytotoxicity (cell viability above 80% indicates no cytotoxicity)
viral replication (infectious virus titers, TCID50), in words [2]: strongest antiviral effects

CC[C@H](C)[C@H](NC(=O)[C@H](CC(N)=O)NC(=O)[C@H](CC(N)=O)NC(=O)[C@H](CC(C)C)NC(=O)[C@H](C)NC(=O)[C@H](CC(=O)O)NC(=O)[C@H](CC(N)=O)NC(C)=O)C(=O)N[C@H](C(=O)N[C@@H](CC(N)=O)C(=O)N[C@@H](CC(N)=O)C(=O)N[C@@H](C)C(=O)N[C@@H](CCCNC(=N)N)C(=O)N[C@@H](CC(=O)O)C(=O)NCC(=O)N[C@@H](CS)C(=O)N[C@H](C(=O)N1CCC[C@H]1C(=O)N[C@@H](CC(C)C)C(=O)N[C@@H](CC(N)=O)C(=O)N[C@H](C(=O)N[C@H](C(=O)N1CCC[C@H]1C(=O)N[C@@H](CC(C)C)C(=O)N[C@H](C(=O)N[C@H](C(=O)N[C@@H](C)C(=O)NCC(=O)N[C@@H](CCCNC(=N)N)C(=O)N[C@@H](CCCCN)C(=O)N[C@@H](CCCCN)C(=O)N[C@@H](CCCNC(=N)N)C(=O)N[C@@H](CCCNC(=N)N)C(=O)N[C@@H](CCC(N)=O)C(=O)N[C@@H](CCCNC(=N)N)C(=O)N[C@@H](CCCNC(=N)N)C(=O)N[C@@H](CCCNC(=N)N)C(=O)N1CCC[C@H]1C(=O)N[C@@H](CCC(N)=O)C(N)=O)[C@@H](C)O)[C@@H](C)O)[C@@H](C)CC)[C@@H](C)CC)C(C)C)[C@@H](C)CC [N8-Pepα]
Plasma Stability Half-life (Plasma stability): approximately 3 min
time to complete loss of detectable peptide in plasma (Plasma stability): ≤ 20 min
half-life at 10 μM (Plasma stability): 3 min
Metabolic Stability Evaluation [1]: High metabolism
half-life at 10 μM [1]: 9.2 min
remaining at 1 h, 10 μM [1]: 0%
microsomal CLint at 10 μM [1]: 151 µL/min/mg
CL_int, in vivo [1]: 594.7 mL/min/kg
viability at 24 h, 40 µM (in vitro): > 80%
cytotoxicity (ISO 10993-5) (Vero-E6 cells; at 40 μM): no cytotoxicity (cell viability above 80% indicates no cytotoxicity)
viral replication (infectious virus titers, TCID50), in words [2]: strongest antiviral effects

CCC(CC)COC(=O)[C@H](C)N[P@](=O)(OC[C@H]1O[C@@](C#N)(c2ccc3c(N)ncnn23)[C@H](O)[C@@H]1O)Oc1ccccc1 [remdesivir]
effect on polymerase activity, in words (SARS-CoV-2 RdRp): dose-dependent reduction in polymerase activity

Ac-YGRKKRRQRRRGSGINVDAPMNNAGLKLTIRPCLTVIVNANIL-NH2 [N8-Pepβ_sc]
KD of the NSP8-NSP7-RNA ligand complex to NSP12 in the presence of the peptide (NSP12-NSP8-NSP7 complex): 14.2 ± 0.9 nM
